Results: patent US20240316047A1, “INHIBITORS OF RNA HELICASE DHX9 AND USES THEREOF” (ACCENT THERAPEUTICS, INC., priority 2022, published 2024)

Molecular target: Human recombinant DHX9 protein (Homo sapiens (Human), UniProt Q08211)
Assay: DHX9 ATPase assay (ADP-Glo)
Format: biochemical
Settings: for IC50: read-out: DHX9 Biochemical Inflection Point

Human recombinant DHX9 protein, sequence (Q08211 whole entry): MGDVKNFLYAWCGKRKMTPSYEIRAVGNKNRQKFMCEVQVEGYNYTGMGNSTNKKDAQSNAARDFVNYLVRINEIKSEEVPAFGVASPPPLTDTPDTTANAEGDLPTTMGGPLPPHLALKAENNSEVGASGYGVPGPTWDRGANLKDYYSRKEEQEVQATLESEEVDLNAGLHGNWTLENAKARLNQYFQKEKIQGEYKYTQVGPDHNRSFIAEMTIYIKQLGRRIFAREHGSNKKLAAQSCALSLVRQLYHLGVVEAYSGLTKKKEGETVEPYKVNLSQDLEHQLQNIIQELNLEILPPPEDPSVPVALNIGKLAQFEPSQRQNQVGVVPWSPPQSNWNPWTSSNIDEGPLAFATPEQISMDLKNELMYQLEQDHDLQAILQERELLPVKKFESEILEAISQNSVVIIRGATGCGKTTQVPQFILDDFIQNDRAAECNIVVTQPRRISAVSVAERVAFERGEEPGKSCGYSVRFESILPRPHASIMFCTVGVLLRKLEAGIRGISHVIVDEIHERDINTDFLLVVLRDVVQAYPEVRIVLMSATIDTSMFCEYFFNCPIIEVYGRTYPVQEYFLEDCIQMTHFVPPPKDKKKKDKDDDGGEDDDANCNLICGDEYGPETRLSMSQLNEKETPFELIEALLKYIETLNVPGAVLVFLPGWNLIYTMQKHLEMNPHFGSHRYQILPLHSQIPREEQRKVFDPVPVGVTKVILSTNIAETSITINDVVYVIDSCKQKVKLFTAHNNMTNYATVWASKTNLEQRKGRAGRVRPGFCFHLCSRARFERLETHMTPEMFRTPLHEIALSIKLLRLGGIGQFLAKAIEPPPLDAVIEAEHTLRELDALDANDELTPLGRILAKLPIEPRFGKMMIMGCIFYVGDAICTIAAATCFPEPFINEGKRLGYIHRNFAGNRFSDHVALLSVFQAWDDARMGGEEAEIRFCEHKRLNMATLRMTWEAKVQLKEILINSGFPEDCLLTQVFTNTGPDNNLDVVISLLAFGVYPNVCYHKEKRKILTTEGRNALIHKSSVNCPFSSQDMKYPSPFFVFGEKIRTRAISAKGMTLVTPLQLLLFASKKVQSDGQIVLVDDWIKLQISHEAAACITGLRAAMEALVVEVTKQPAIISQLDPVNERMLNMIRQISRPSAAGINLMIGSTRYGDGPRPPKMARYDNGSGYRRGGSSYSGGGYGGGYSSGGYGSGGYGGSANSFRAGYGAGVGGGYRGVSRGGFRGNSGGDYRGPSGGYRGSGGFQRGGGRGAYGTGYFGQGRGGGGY

Compound	DHX9 Biochemical Max Inhibition	IC50 [nM]
CS(=O)(=O)Nc1cc(Cl)cc(NC(=O)c2cnn(C3CCOCC3)c2)c1 [Example 131, N-(3-chloro-5-(methylsulfonamido)phenyl)-1-(tetrahydro-2H-pyran-4-yl)-1H-pyrazole-4-carboxamide]	55.9%	151
CC(C)(C)OC(=O)N1CC2(CC(n3cc(C(=O)Nc4cc(Cl)cc(NS(C)(=O)=O)c4)cn3)C2)C1 [Example 144, tert-butyl 6-(4-((3-chloro-5-(methylsulfonamido)phenyl)carbamoyl)-1H-pyrazol-1-yl)-2-azaspiro[3.3]heptane-2-carboxylate]	65.1%	224
Cc1ccc(C(=O)Nc2cc(Br)cc(NS(C)(=O)=O)c2)cc1-n1cccn1 [Example 10]	61%	133
CS(=O)(=O)Nc1cc(Cl)cc(NC(=O)c2cc(N3CCOCC3)cs2)c1 [Example 245]	71.4%	121
CS(=O)(=O)Nc1cc(Cl)cc(NC(=O)c2cnn([C@H]3CC[C@H]3O)c2)c1 (single isomer, unassigned) [Example 306b]	74.2%	253
CN1CC2(CC(n3cc(C(=O)Nc4cc(Cl)cc(NS(C)(=O)=O)c4)cn3)C2)C1 [Example 311]	77.7%	38.5
Cc1cc(C(=O)Nc2cc(F)cc(NS(C)(=O)=O)c2)c[nH]1 [Example 5]	74.6%	215
CC(C)(C)OC(=O)N1CCC(n2cc(C(=O)Nc3cc(Cl)cc(NS(C)(=O)=O)c3)cn2)CC1 [Example 136]	59.6%	
CS(=O)(=O)Nc1cc(Cl)cc(NC(=O)c2cc(-c3ncccc3CC(=O)N3CCC3)cs2)c1 [Example 382]	75.9%	
CS(=O)(=O)Nc1cc(Cl)cc(NC(=O)c2cnn([C@H]3CCC[C@H]3c3ccccc3)c2)c1 (single isomer, unassigned) [Example 260]	50%	
CS(=O)(=O)Nc1cc(Br)cc(NC(=O)c2cnn(-c3ncccc3N)c2)c1 [Example 162, 1-(3-aminopyridin-2-yl)-N-(3-bromo-5-(methylsulfonamido)phenyl)-1H-pyrazole-4-carboxamide]	60.5%	19.7
Cc1cc(C(=O)Nc2cc(Cl)cc(NS(=O)(=O)C(F)F)c2)cn1-c1ccc(N2CCOCC2)cn1 [Example 248]	70.8%	185
CS(=O)(=O)Nc1cc(F)cc(NC(=O)c2cc(Br)cs2)c1 [Example 71, 4-bromo-N-(3-fluoro-5-(methylsulfonamido)phenyl)thiophene-2-carboxamide]	77.8%	171
Cn1cc(C(=O)Nc2cc(Cl)cc(NS(C)(=O)=O)c2)cc1-c1c(F)cc(F)c[n+]1[O-] [Example 567]	77	58.4
COc1cnc(-c2cc(C(=O)Nc3cc(Cl)cc(NS(C)(=O)=O)c3)sc2C)c(C)c1 [Example 361]	88.8%	
CS(=O)(=O)Nc1cc(Cl)cc(NC(=O)c2cc3c(s2)CCC3Oc2cccnc2)c1 (stereo not shown) [Example 687]	68.1	119

The next lines start with the values.

DHX9 Biochemical Max Inhibition	IC50 [nM]	Compound
76.5%	34.5	Cn1cc(C(=O)Nc2cc(Cl)cc(NS(C)(=O)=O)c2)cc1N1CCCCC1=O [Example 158, N-(3-chloro-5-(methylsulfonamido)phenyl)-1-methyl-5-(2-oxopiperidin-1-yl)-1H-pyrrole-3-carboxamide]
65.7	29.7	Cc1cc(C(=O)Nc2cc(Cl)cc(NS(C)(=O)=O)c2)cn1-c1ncc(N2CCC(F)(F)C2)cn1 [Example 409]
80.6	7.5	COCc1ccc(-c2cc(C(=O)Nc3cc(Cl)cc(NS(C)(=O)=O)c3)cn2C)nc1 [Example 574]
66.3%	19.4	CN1CCN(c2cnc(-n3cc(C(=O)Nc4cc(Cl)cc(NS(C)(=O)=O)c4)cn3)cn2)CC1=O [Example 184]
78.7%	17.7	CN(C)C(=O)c1cccnc1-c1csc(C(=O)Nc2cc(Cl)cc(NS(C)(=O)=O)c2)c1 [Example 222]
61.8%	14.5	Cn1cc(C(=O)Nc2cc(Cl)cc(NS(C)(=O)=O)c2)cc1-c1ncc(F)cn1 [Example 171, N-(3-chloro-5-(methylsulfonamido)phenyl)-5-(5-fluoropyrimidin-2-yl)-1-methyl-1H-pyrrole-3-carboxamide]
71.3	30.7	Cc1cc(C(=O)Nc2cc(Cl)cc(NS(C)(=O)=O)c2)cn1-c1ncc(S(C)(=O)=O)cn1 [Example 656]
70.4	11.7	Cc1sc(C(=O)Nc2cc(Cl)cc(NS(C)(=O)=O)c2)cc1-c1ncc(N2CCC3(CC2)COC3)cc1F [Example 474]
81.8	13.5	Cc1cc(C(=O)Nc2cc(Cl)cc(NS(C)(=O)=O)c2)cn1-c1ccc(N2CCOC2=O)cn1 [Example 416]
75.7	4.2	Cc1sc(C(=O)Nc2cc(Cl)cc(NS(=O)(=O)CCO)c2)cc1-c1ncccc1OCc1cncc(F)c1 [Example 626]
95	3	Cc1sc(C(=O)Nc2cc(Cl)cc(NS(C)(=O)=O)c2)cc1-c1ncc(C2(F)COC2)cn1 [Example 680]
72.2	21.2	COC(=O)N1CCN(c2cnc(-c3cc(C(=O)Nc4cc(Cl)cc(NS(C)(=O)=O)c4)sc3C)c(C)c2)CC1 [Example 601]
69.1	6.9	Cc1sc(C(=O)Nc2cc(Cl)cc(NS(C)(=O)=O)c2)cc1-c1ncc(P(C)(C)=O)cn1 [Example 648]
63.5	17	Cn1cc(C(=O)Nc2cc(Cl)cc(NS(C)(=O)=O)c2)cc1-c1ncccc1OCC1CC1 [Example 584]
72.1%	34	CCS(=O)(=O)Nc1cc(Cl)cc(NC(=O)c2cc(-c3ncc(F)cc3F)c(C)s2)c1 [Example 347]
81.4	15.7	COc1cnn(-c2cc(C(=O)Nc3cc(Cl)cc(NS(C)(=O)=O)c3)sc2C)c1 [Example 436]
71.4	3.4	Cc1sc(C(=O)Nc2cc(Cl)cc(NS(C)(=O)=O)c2)cc1-c1ncc(OC2CNC2)cc1F [Example 637]
76.5%	28.1	CS(=O)(=O)Nc1cc(Cl)cc(NC(=O)c2cnn(-c3ncc(F)cc3OCc3cccc(C#N)c3)c2)c1 [Example 203]
93.9	5.2	Cc1cc(C(=O)Nc2cc(Cl)cc(NS(C)(=O)=O)c2)cn1-c1ccc(N2CC3COCC3C2)cn1 (stereo not shown) [Example 405]
76.2	17.7	Cn1cc(C(=O)Nc2cc(Cl)cc(NS(C)(=O)=O)c2)cc1-c1ccc(F)cn1 [Example 575]
68.8	6.8	Cc1sc(C(=O)Nc2cc(Cl)cc(NS(C)(=O)=O)c2)cc1-c1ncc(OC(C)C(=O)O)cn1 (stereo not shown) [Example 671]
